Biological target: Neuronal acetylcholine receptor subunit alpha-4 (Homo sapiens, UniProt P43681)
Sequence (P43681 whole entry): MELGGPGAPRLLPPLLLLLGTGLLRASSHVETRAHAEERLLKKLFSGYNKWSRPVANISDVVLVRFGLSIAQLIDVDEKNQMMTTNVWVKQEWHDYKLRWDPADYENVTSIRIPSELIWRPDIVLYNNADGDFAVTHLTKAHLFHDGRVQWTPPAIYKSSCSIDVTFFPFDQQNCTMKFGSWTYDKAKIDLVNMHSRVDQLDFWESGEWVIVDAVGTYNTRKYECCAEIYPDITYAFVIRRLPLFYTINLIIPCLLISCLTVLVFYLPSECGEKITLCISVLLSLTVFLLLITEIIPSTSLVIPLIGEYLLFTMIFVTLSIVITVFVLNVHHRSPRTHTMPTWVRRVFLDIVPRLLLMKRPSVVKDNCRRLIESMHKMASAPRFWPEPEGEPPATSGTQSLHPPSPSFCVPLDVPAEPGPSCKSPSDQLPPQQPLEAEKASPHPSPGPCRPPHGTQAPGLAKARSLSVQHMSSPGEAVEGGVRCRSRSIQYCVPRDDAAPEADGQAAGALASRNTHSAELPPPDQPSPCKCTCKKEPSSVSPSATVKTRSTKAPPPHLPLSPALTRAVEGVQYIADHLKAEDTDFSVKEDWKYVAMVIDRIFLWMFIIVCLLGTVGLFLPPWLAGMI

Row | SMILES | Ki [µM]
1 | CNC(=O)Oc1ccc2c(c1)C1(C)CCN(C)C1N2C (centres undefined) [1,3a,8-trimethyl-1H,2H,3H,3aH,8H,8aH-pyrrolo[2,3-b]indol-5-yl N-methylcarbamate] | > 10
2 | C[N+](C)(C)CCOC(=O)CCC(=O)OCC[N+](C)(C)C [2,2'-[(1,4-dioxobutane-1,4-diyl)bis(oxy)]bis(N,N,N-trimethylethanaminium)] | 2.9
3 | C[N+](C)(C)CCOC(N)=O [(2-Hydroxyethyl)trimethyl ammonium chloride carbamate] | 0.15
4 | CC(=O)SCC[N+](C)(C)C [ATC] | 0.17
5 | COc1cc2c3cc1Oc1cc(ccc1O)C[C@H]1c4c(cc(OC)c(O)c4Oc4ccc(cc4)C[C@@H]3N(C)CC2)CC[N+]1(C)C [CAS_57-94-3] | 2
6 | O=c1cccc2n1CC1CNCC2C1 (centres undefined) [CAS_485-35-8] | 0.00024
7 | CCN1CC2(COC(=O)c3ccccc3-n3c(O)cc(C)c3O)CCC(OC)C34C5CC6C(OC)CC(O)(C5C6OC)C(O)(C(OC)C23)C14 (centres undefined) [CAS_21019-30-7] | 2.8
8 | CC(=O)OC1CC2CCC3C(CCC4(C)C3CC([N+]3(C)CCCCC3)C4OC(C)=O)C2(C)CC1N1CCCCC1 (centres undefined) [CAS_39764] | > 10
9 | C[N+]1(C)CCN(c2ccccc2)CC1 [DMPP] | 0.02
10 | C[N+](C)(C)CCCCCCCCCC[N+](C)(C)C [Decamethonium Iodide] | 1.3
11 | C[N+](C)(C)CCCCCC[N+](C)(C)C [Hexamethoniumdibromide] | > 10
12 | CC(=O)OC1CC2CCC3C(CCC4(C)C3CC([N+]3(C)CCCCC3)C4OC(C)=O)C2(C)CC1[N+]1(C)CCCCC1 (centres undefined) [NSC_27350] | > 10
13 | C[N+](C)(C)CCOC(=O)CCCCCCC(=O)OCC[N+](C)(C)C [NSC_123990] | 0.013
14 | C=CC[N+]12CCC34c5ccccc5N5C=C6C7CC8C9(CC[N+]8(CC=C)CC7=CCO)c7ccccc7N(C=C(C(CC31)C(=CCO)C2)C54)C69 (centres undefined) [NSC_5311001] | > 10
